The source of these data is patent US20130274100A1, “Synergistic Fungicidal Active Substance Combinations” (priority 2005, published 2013).

One experiment concerns Puccinia recondita. The experiment can be described thus: Puccinia test (wheat)/protective. Particulars: protective spray, evaluation 10 days after inoculation. The experiment is classed as in vivo. The source says:
The expected fungicidal action for a given combination of two active compounds can be calculated as follows, according to S. R. Colby (“Calculating Synergistic and Antagonistic Responses of Herbicide Combinations”, Weeds 1967, 15, 20-22): • X is the efficacy when employing active compound A at an application rate of m g/ha, • Y is the efficacy when employing active compound B at an application rate of n g/ha and • E is the efficacy when employing active compounds A and B at application rates of m and n g/ha, then Here, the efficacy is determined in %. 0% means an efficacy which corresponds to that of the control, whereas an efficacy of 100% means that no infection is observed. If the actual fungicidal action exceeds the calculated value, the action of the combination is superadditive, i.e. a synergistic effect is present. In this case, the actually observed efficacy must exceed the value calculated using the above formula for the expected efficacy (E). Puccinia Test (Wheat)/Protective Solvent: 50 parts by weight of N,N-dimethylacetamide Emulsifier: 1 part by weight of alkylaryl polyglycol ether To produce a suitable preparation of active compound, 1 part by weight of active compound is mixed with the stated amounts of solvent and emulsifier or a commercial active compound formulation, and the concentrate is diluted with water to the desired concentration. To test for protective activity, young plants are sprayed with the preparation of active compound at the stated application rate. After the spray coating has dried on, the plants are sprayed with a conidia suspension of Puccinia recondita. The plants remain in an incubation cabin at 20° C. and 100% relative atmospheric humidity for 48 hours. The plants are then placed in a greenhouse at a temperature of about 20° C. and a relative atmospheric humidity of 80% to promote the development of rust postules. Evaluation is carried out 10 days after the inoculation. 0% means inefficacy which corresponds to that of the control, whereas an efficacy of 100% means that no infection is observed.

Experiment [1] deals with Erysiphe graminis f.sp. tritici. The experiment can be described thus: Erysiphe test (wheat)/protective. The experiment is classed as in vivo. Particulars: protective spray, application rate 62.5 g/ha, evaluation 7 days after inoculation. The source says:
The expected fungicidal action for a given combination of two active compounds can be calculated as follows, according to S. R. Colby (“Calculating Synergistic and Antagonistic Responses of Herbicide Combinations”, Weeds 1967, 15, 20-22): • X is the efficacy when employing active compound A at an application rate of m g/ha, • Y is the efficacy when employing active compound B at an application rate of n g/ha and • E is the efficacy when employing active compounds A and B at application rates of m and n g/ha, then Here, the efficacy is determined in %. 0% means an efficacy which corresponds to that of the control, whereas an efficacy of 100% means that no infection is observed. If the actual fungicidal action exceeds the calculated value, the action of the combination is superadditive, i.e. a synergistic effect is present. In this case, the actually observed efficacy must exceed the value calculated using the above formula for the expected efficacy (E). Erysiphe Test (Wheat)/Protective Solvent: 50 parts by weight of N,N-dimethylacetamide Emulsifier: 1 part by weight of alkylarylpolyglycol ether To produce a suitable preparation of active compound, 1 part by weight of active compound is mixed with the stated amounts of solvent and emulsifier or a commercial active compound formulation, and the concentrate is diluted with water to the desired concentration. To test for protective activity, young plants are sprayed with the preparation of active compound at the stated application rate. After the spray coating has dried on, the plants are dusted with spores of Erysiphe graminis f.sp. tritici. The plants are placed in a greenhouse at a temperature of about 20° C. and a relative atmospheric humidity of about 80% to promote the development of mildew pustules. Evaluation is carried out 7 days after the inoculation. 0% means an efficacy which corresponds to that of the control, whereas an efficacy of 100% means that no infection is observed.

`Cc1cc(C2CC2)nc(Nc2ccccc2)n1` [(9-1), Cyprodinil]: the “Efficacy in % found” value (in the experiment on Puccinia recondita (application rate 125 g/ha); in experiment [1]) was 0% in each case.

Take `CC(C)CC(C)c1sccc1NC(=O)c1cn(C)nc1C(F)(F)F` (stereo not shown) [(1-1), N-[2-(1,3-dimethylbutyl)-3-thienyl]-1-methyl-3-(trifluoromethyl)-1H-pyrazole-4-carboxamide]: the “Efficacy in % found” value is given as 33% with Puccinia recondita (application rate 125 g/ha), 67% with Puccinia recondita (application rate 250 g/ha) and 0% in experiment [1].

Take `CO/C=C(/C(=O)OC)c1ccccc1COc1cccc(C(F)(F)F)n1` [(2-9), Picoxystrobin]: the “Efficacy in % found” value is 94% in the experiment on Puccinia recondita (application rate 250 g/ha) and 71% in experiment [1].

Regarding `CC(C1CC1)C(O)(Cn1cncn1)c1ccc(Cl)cc1` (stereo not shown) [(3-6), Cyproconazole], the “Efficacy in % found” value in the experiment on Puccinia recondita (application rate 125 g/ha) amounted to 94%; in experiment [1], 57%.

Regarding `CCCCC(O)(Cn1cncn1)c1ccc(Cl)cc1Cl` (stereo not shown) [(3-7), Hexaconazole], the “Efficacy in % found” value worked out at 78% in the experiment on Puccinia recondita (application rate 125 g/ha) and 29% in experiment [1].

Take `CCCC1COC(Cn2cncn2)(c2ccc(Cl)cc2Cl)O1` (stereo not shown) [(3-3), Propiconazole]: the “Efficacy in % found” value in the experiment on Puccinia recondita (application rate 125 g/ha) is recorded as 56%; in experiment [1], 29%.
